Laboratory results from patent publication US5506122A, “Process for producing nucleosides” (Yamasa Shoyu Kabushiki Kaisha, priority 1989, dated 1996).
Read-outs that look alike come from different tables or passages of the source.

Columns and labels:
[1] = target: T1, purine nucleoside phosphorylase (Geobacillus stearothermophilus, UniProt P77834); assay: Substrate specificity: phosphorolysis of purine nucleoside substrates by purified enzyme; format: biochemical, Bacillus stearothermophilus TH6-2; details: for activity at 10000 µM: 10 min; for Substrate specificity of purine nucleoside phosphorylase, in words: within the range tested
T1 construct: nucleoside phosphorylase obtained by extraction/purification from Bacillus stearothermophilus TH6-2; endogenous in cells; host or cells: Bacillus stearothermophilus TH6-2 (FERM BP-2758), enzyme purified in house from the wild cells
T1 sequence (P77834 1-274): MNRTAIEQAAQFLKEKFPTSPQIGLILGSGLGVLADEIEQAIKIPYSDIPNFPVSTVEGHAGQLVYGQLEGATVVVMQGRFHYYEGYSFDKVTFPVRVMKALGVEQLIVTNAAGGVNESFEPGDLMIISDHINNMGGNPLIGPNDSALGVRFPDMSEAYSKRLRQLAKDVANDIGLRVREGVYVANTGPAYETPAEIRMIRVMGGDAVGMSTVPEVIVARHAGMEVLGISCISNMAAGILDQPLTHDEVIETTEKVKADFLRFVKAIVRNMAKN
Protocol: Into 1.0 ml of a substrate solution (aqueous solution of pH 8.0 containing 20 mM inosine and 0.1M potassium dihydrogenphosphate) is added 20 μl of an enzyme solution (50 mM acetate buffer (pH 6.0) containing 1 μg of purified enzyme), and the reaction is carried out at 50° C. for 10 minutes. Then the reaction is stopped by addition of HCl to a final concentration of 0.1N, and also cooling at 0° C. for 10 minutes. Next, the reaction is subjected to centrifugation, and the supernatant obtained is then subjected to the HPLC method (column: YMC A-312 (manufactured by Yamamura Kagaku Kenkyusho, K.K.), eluent: 20 mM Tris-HCl buffer (pH 7.5) containing 5.0% acetonitrile, detection: 260 nm) to quantitate the hypoxanthine formed. The enzyme amount forming 1 μmol of hypoxanthine per one minute is defined as one unit ("U").
(§1) By the use of an aqueous solution of pH 8.0 containing 10 mM of a nucleoside and 50 mM of potassium dihydrogenphosphate as a substrate solution, the reaction is carried out at 50° C. for 10 minutes, and after the reaction, except for quantitating the base of the nucleoside according to the HPLC method, the same method as in the assay of purine nucleoside phosphorylase activity is conducted.

[2] = target: T2, pyrimidine nucleoside phosphorylase (Geobacillus stearothermophilus, UniProt P77836); assay: Substrate specificity: phosphorolysis of pyrimidine nucleoside substrates by purified enzyme; format: biochemical, Bacillus stearothermophilus TH6-2; details: for Relative Activity / Amount of Base Formed: 10 mM nucleoside, 50 mM potassium dihydrogenphosphate, pH 8.0, 50° C., 10 minutes; for Substrate specificity of pyrimidine nucleoside phosphorylase, in words: within the range tested
T2 construct: nucleoside phosphorylase obtained by extraction/purification from Bacillus stearothermophilus TH6-2; endogenous in cells; host or cells: Bacillus stearothermophilus TH6-2 (FERM BP-2758), enzyme purified in house from the wild cells
T2 sequence (P77836 1-433): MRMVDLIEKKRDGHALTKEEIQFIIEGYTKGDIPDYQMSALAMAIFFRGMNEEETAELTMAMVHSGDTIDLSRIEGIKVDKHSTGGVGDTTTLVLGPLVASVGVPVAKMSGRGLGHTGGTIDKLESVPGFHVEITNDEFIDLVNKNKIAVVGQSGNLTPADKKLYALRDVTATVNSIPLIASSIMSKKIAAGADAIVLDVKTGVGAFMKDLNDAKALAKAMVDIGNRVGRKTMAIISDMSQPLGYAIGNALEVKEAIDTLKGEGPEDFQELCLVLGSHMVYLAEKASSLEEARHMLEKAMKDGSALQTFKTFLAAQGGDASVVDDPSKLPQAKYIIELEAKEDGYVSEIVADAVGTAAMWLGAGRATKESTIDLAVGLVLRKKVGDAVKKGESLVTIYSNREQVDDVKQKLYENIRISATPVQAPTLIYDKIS
Protocol: Except for using uridine in place of inosine in the substrate solution and quantitating uracil according to the HPLC method, the same method as in the above-described assay of purine nucleoside phosphorylase activity is conducted. The amount of enzyme forming 1 μmol of uracil per one minute is defined as one unit.
as §1

[3] = 10 mM nucleoside, 50 mM potassium dihydrogenphosphate, pH 8.0, 50° C., 10 minutes
[4] = 10 mM nucleoside, 50 mM potassium dihydrogenphosphate, pH 8.0, 50° C., 10 minutes, read-out: Relative Activity
[5] = pH 8, read-out: Relative Activity

Row | Compound | Amount of Base Formed [1, 3] [μmol/10 min.] | activity at 10000 µM [1, 4] [%] | Relative Activity [2] [%] | Amount of Base Formed [2] [μmol/10 min.] | other results
1 | Nc1ncnc2c1ncn2[C@@H]1O[C@H](CO)C[C@H]1O [3'-Deoxyadenosine] | 0 | 0 |  |  | 
2 | Nc1nc2c(ncn2[C@@H]2O[C@H](CO)[C@@H](O)[C@H]2O)c(=O)[nH]1 [Guanosine] | 2.15 | 84 |  |  | Substrate specificity of purine nucleoside phosphorylase, in words [1]: specific
3 | Cc1cn([C@@H]2O[C@H](CO)[C@@H](O)[C@H]2O)c(=O)[nH]c1=O [Ribofuranosyl thymine] |  |  | 38 |  | 
4 | O=c1[nH]cc([C@@H]2O[C@H](CO)[C@@H](O)[C@H]2O)c(=O)[nH]1 [Pseudouridine] |  |  | 0 | 0 | 
5 | O=c1ccn2c(n1)O[C@H]1[C@H](O)[C@@H](CO)O[C@H]12 [Cyclouridine] |  |  | 0 | 0 | 
6 | Nc1nc2c(ncn2[C@H]2C[C@H](O)[C@@H](CO)O2)c(=O)[nH]1 [2'-Deoxyguanosine] | 2.18 | 85 |  |  | Substrate specificity of purine nucleoside phosphorylase, in words [1]: specific
7 | Nc1ncnc2c1ncn2[C@@H]1O[C@H](CO)[C@@H](O)[C@@H]1O [Arabinofuranosyl adenine] |  |  |  |  | activity at 10000 µM [1, 5]: 0%
8 | Nc1ncnc2c1ncn2[C@H]1C[C@H](O)[C@@H](CO)O1 [2'-Deoxyadenosine] | 0 | 0 |  |  | 
9 | OC[C@H]1O[C@@H](n2cnc3c(O)ncnc32)C[C@@H]1O [2'-Deoxyinosine] | 2.54 | 100 |  |  | Substrate specificity of purine nucleoside phosphorylase, in words [1]: specific
10 | Cc1cn([C@H]2C[C@H](O)[C@@H](CO)O2)c(=O)[nH]c1=O [Thymidine] |  |  | 67 | 1.71 | Substrate specificity of pyrimidine nucleoside phosphorylase, in words [2]: specific
11 | Nc1ccn([C@@H]2O[C@H](CO)[C@@H](O)[C@H]2O)c(=O)n1 [Cytidine] |  |  | 0 | 0 | Substrate specificity of pyrimidine nucleoside phosphorylase, in words [2]: does not recognize them as the substrate
12 | Nc1ccn([C@H]2C[C@H](O)[C@@H](CO)O2)c(=O)n1 [2'-Deoxycytidine] |  |  | 0 | 0 | 
13 | O=c1ccn([C@@H]2O[C@H](CO)[C@@H](O)[C@@H]2O)c(=O)[nH]1 [Arabinofuranosyl uracil] |  |  | 0 |  | 
14 | OC[C@@H]1C[C@@H](O)[C@H](n2cnc3c(O)ncnc32)O1 [3'-Deoxyinosine] | 0 | 0 |  |  | 
15 | Nc1ncnc2c1ncn2[C@@H]1O[C@H](CO)[C@@H](O)[C@H]1O [Adenosine] | 0.15 |  |  |  | activity at 10000 µM [1, 5]: 5%; Substrate specificity of purine nucleoside phosphorylase, in words [1]: does not recognize them as the substrate
16 | OC[C@H]1O[C@@H](n2cnc3c(O)ncnc32)[C@H](O)[C@@H]1O [Inosine] | 2.55 | 100 |  |  | Substrate specificity of purine nucleoside phosphorylase, in words [1]: specific
17 | O=c1ccn([C@H]2C[C@H](O)[C@@H](CO)O2)c(=O)[nH]1 [2'-Deoxyuridine] |  |  | 100 | 2.55 | Substrate specificity of pyrimidine nucleoside phosphorylase, in words [2]: specific
18 | O=c1ccn([C@@H]2O[C@H](CO)[C@@H](O)[C@H]2O)c(=O)[nH]1 [Uridine] |  |  | 68 | 1.73 | Substrate specificity of pyrimidine nucleoside phosphorylase, in words [2]: specific
